According to patent US9345716B2, “Protein free surfactant composition for pulmonary diseases and a process for preparing the same” (INDIAN INSTITUTE OF TECHNOLOGY, BOMBAY, priority 2010, dated 2016):
“And” between values parts separate entries of the source, which are not always exact repeats. Identical values can stand only once.

Experiments:
[1] = Airway patency in a capillary surfactometer; settings: 37 C, graded concentrations of albumin
Description: This is evaluated in a capillary surfactometer at 37 C at a concentration of 1 mg/ml of the surfactant in the presence of 0.5 mg/ml of albumin.
FIG. 2 compares the airway patency of DPPC:Eugenol 5:3 (present invention) at a concentration of 1 mg/ml with that of DPPC:clove oil 5:3 1 mg/ml in the absence and presence of 0.5 mg/ml of albumin in a capillary surfactometer at 37 C.

[2] = Laurdan fluorescence ratio (lamellar/non-lamellar phase state); assay type: physicochemical; settings: for Ratio of Laurdan fluorescence 360/390: 360 and 390 nm; for Ratio of Laurdan fluorescence 360/490: 360 and 490 nm
From the text: (§1) Laurdan (6-dodecanoyl-2-dimethylaminonaphthalene) is a fluorescent membrane probe that has the advantage of displaying spectral sensitivity to the phospholipids phase state.
as §1

[3] = Atomic force microscopy of surfactant films in presence of albumin; assay type: physicochemical; settings: in the presence of albumin
From the text: The invented surfactant of DPPC: eugenol 5:3 forms closely packed structures having nanodomains in the presence of albumin. The DPPC: eugenol surfactant in the absence and presence of albumin was compared with that of DPPC alone in the absence and presence of albumin, using atomic force microscopy (AFM). AFM images of DPPC in the presence of albumin and DPPC: eugenol 5:3 in the presence of albumin are depicted in FIGS. 11 and 13 respectively and the roughness of the structures are depicted in FIGS. 12 and 14. […] The surface roughness of DPPC in the presence of albumin is depicted in FIG. 12. It confirms large aggregates with roughness of 47.47 nm. On the other hand, in the case of DPPC: eugenol in the presence of albumin, the surface roughness is only 8.9 nm as depicted in FIG. 14. The formation of nanodomains of 80-90 nm with surface roughness of 8.9 nm allows a closely packed organization which accounts for the improved surface activity of the surfactant in the presence of albumin.

[4] = Differential scanning calorimetry: energy required by liposomes to reach the interface; assay type: physicochemical; settings: liposomes 1 mg/ml
Description: Differential scanning calorimetry (DSC) was also used to study the interaction of bioactive compounds with model lipid bilayers such as DPPC. The experiments were performed at temperature ranging from 35° C. to 115° C. The rate of heating was 3° C./min and the system was allowed to cool to about 35° C. before the next experiment. The samples studied in the order of DSC results were,
Differential scanning calorimetry (DSC) was used to study the interaction of bioactive compounds with model lipid bilayers such as DPPC. The experiments were performed at temperature ranging from 35° C. to 115° C. The rate of heating was 3° C./min and the system was allowed to cool to about 35° C. before the next experiment. […] The lower the energy required by the nanovesicles, better is the rate of adsorption. […] On addition of HCl (as an acid inhibitor), there was an increase in the energy (1743 J/g) of the DPPC liposomes which affected the adsorption (59.89±2.22mN/m) of these acid-treated liposomes. The energy barrier prevented the rapid entry of these liposomes at the interface thereby affecting adsorption.

[5] = Surfactant adsorption to air-liquid interface in a langmuir trough; assay type: physicochemical
Description: Salbutamol or dexamethasone were added in a ratio of 1 part of surfactant to 0.1 parts of drug while gentamycin was added in a ratio of 1 part of surfactant to 0.2 parts of drug by weight.

Row | SMILES | Airway patency in presence of graded amounts of albumin [1] | Ratio of Laurdan fluorescence 360/390 ([2]; in the presence of albumin) | Ratio of Laurdan fluorescence 360/390 ([2]; no albumin) | Ratio of Laurdan fluorescence 360/490 ([2]; in the presence of albumin) | Ratio of Laurdan fluorescence 360/490 ([2]; no albumin) | Domain size (AFM) [3] | Surface roughness (AFM) [3] | Energy required for the liposomes to reach the interface (DSC) ([4]; HCl 3.1×10^−1 moles/dm^3) | Energy required for the liposomes to reach the interface (DSC) ([4]; acid-untreated) | Adsorption (rate of adsorption, surface tension) ([5]; acid-treated, HCl 3.1×10^−1 moles/dm^3) | Adsorption (rate of adsorption, surface tension) ([5]; acid-untreated, liposomes 1 mg/ml)
1 | CCCCCCCCCCCCCCCC(=O)OC[C@H](COP(=O)([O-])OCC[N+](C)(C)C)OC(=O)CCCCCCCCCCCCCCC [DPPC, dipalmitoylphosphatidylcholine] | 0% | 1.98 and 1.99 | 2.6 and 2.615 | 1.21 and 1.215 | 2.41 | 540-550 nm | 47.47 nm | 1743 J/g | 1325 J/g | 59.89±2.22 mN/m | 44.66±1.71 mN/m
2 | C=CCc1ccc(O)c(OC)c1 [eugenol] | 0% | – | – | – | – | – | – | – | – | – | –
